Laboratory results reported in US20060264423A1 (BIOENVISION, INC., priority 2005, published 2006).
Read-outs that look alike come from different tables or passages of the source.

How the values were obtained:
Herpes B = conditions: cited from earlier work
[1] = in vivo; cited from earlier work
[2] = in vivo; cited from earlier work; remark: listed apart in the source
[3] = sheep; cited from earlier work
[4] = in vivo; cited from earlier work; remark: listed apart in the source
[5] = sheep; doses as high as 50 mg/kg; cited from earlier work
[6] = in vivo; cited from earlier work; remark: listed apart in the source
hepatitis C, genotype 4 = assay: Open label clinical trial of oral methylene blue, reduction in hepatitis C viral load measured by PCR
[7] = cited from earlier work
chronic hepatitis B or C = conditions: patients with chronic hepatitis B or C; cited from earlier work
[8] = at 50 days, of the 23 responders

Compound: Nc1nc2c(ncn2COCCO)c(=O)[nH]1 [Acyclovir]
- sensitivity of the virus in vitro (Herpes B): sensitive

Compound: CC(=O)OCC(CCn1cnc2cnc(N)nc21)COC(C)=O [famciclovir]
- oral bioavailability superior to that of oral acyclovir [1]: 3-5 times

Compound: CN(C)c1ccc2nc3ccc(N(C)C)cc3[s+]c2c1 [methylene blue, 3,7-Bis(dimethylamino)-phenothiazin-5-ium chloride]
- absorption from the GI tract [2]: absorbed well
- overall elimination rate constant [3]: 0.0076 ± 0.0016 min⁻¹
- oral absorption (range) [4]: 55% to 97
- methemoglobin production [5]: minimal methemoglobin production
- crossing of the blood-milk barrier [6]: crosses the blood-milk barrier easily
- decrease in viral count (hepatitis C, genotype 4; 23 patients (of 25, genotype 4), at 50 days): 70-100%
- non-responders (hepatitis C, genotype 4; at 50 days, 25 patients, genotype 4): Two
- responders with between 0.7-1 log reduction in viral load (hepatitis C, genotype 4; [8]): 12 (52%) patients (%)
- responders with between 1-2 log reduction in viral load (hepatitis C, genotype 4; [8]): 6 (26%) patients (%)
- responders with viral clearance (hepatitis C, genotype 4; [8]): 5 (22%) patients (%)
- drop in viral load (hepatitis C, genotype 4; interim results, 8 of 9 patients, within the first 50 days): 62%-100
- patients with between greater than or equal to 0.6 log to less than or equal to 1 log reduction in viral load (hepatitis C, genotype 4; interim results, first 9 patients, 50 days of treatment): 89%
- patients with a greater than or equal to two log reduction in viral load (hepatitis C, genotype 4; interim results, first 9 patients, 50 days of treatment, 65 mg twice daily oral): 33%
- efficacy in treating hepatitis C (conclusion) (hepatitis C, genotype 4; overall conclusion of the trial results): highly efficacious
- side effects ([7]; adult humans, one week to 19 months, 100 mg b.i.d. or t.i.d. orally or 100 mg intravenously): minimal side effects
- side effects ([7]; recommended dose 50 to 300 mg by mouth, 1 to 4 mg/kg intravenously): blue urine, occasional nausea, anemia and fever

Compound: Interferon alpha
- patients in whom treatment is effective (chronic hepatitis B or C): 25-30%

Compound: Nc1nc(O)c2ncn(COC(CO)CO)c2n1 [Ganciclovir]
- sensitivity of the virus in vitro (Herpes B): sensitive

Compound: CC(C)[C@H](N)C(=O)OCCOCn1cnc2c(=O)[nH]c(N)nc21 [Valaciclovir]
- oral bioavailability superior to that of oral acyclovir [1]: 3-5 times
